Where a name gives a salt, the structure may show the parent alone. Read-outs that look alike come from different tables or passages of the source.

One may read the IC50 as the point on the concentration scale where inhibition reaches its midpoint.

Data set [1] relates to human hepatocytes. The conditions noted are these: male, 4 h.
Procedure: (§1) Cryopreserved human hepatocytes (male) that are prepared by XenoTech, LLC (Lenexa, Kans.), are thawed on the day of use and resuspended in Waymouth's incubation media. The enzymatic activity of hepatocytes is monitored using 7-ethoxycoumarin and 7-hydroxycoumarin as substrates. […] The incubations are carried out for 4 hours with 1×10^6 viable cells/ml. […] At 0 and 4 hour, cell suspensions are extracted using two volumes of ice cold methanol. After centrifugation, the extracts are stored at −20° C. until further sample processing. The solvent in the samples are dried under a stream of nitrogen, and resuspended in methanol:water (1:1) before analysis.
(§2) The extracts of the 4 hour incubation mixture are analyzed by liquid chromatography/electrospray ionization-mass spectrometry (LC/ESI-MS) in the positive and negative ion modes to screen for possible metabolites. […] The same instrumentation and methods in HPLC Method 1 are used in HPLC Method 2 with the exception that the mobile phases and gradient are 0.4% HCOOH in H2O for mobile A and CH3OH for mobile phase B. The mass spectrometer is LCQ™ Ion Trap Mass Spectrometer and is in either the positive or negative electrospray mode with the ion spray set at 4.5 kV. The capillary temperature is 250° C., the nitrogen sheath gas flow rate is ˜80 unit, the auxiliary nitrogen gas flow rate is 20 unit, and the collision gas is helium.
In data set [2] the test system is human hepatocytes. Briefly: In vitro metabolism in human hepatocytes. The following applies: 100 μM, 4 hours incubation.
Procedure: as §1, §2
The next data set addresses CYP2C19 (Homo sapiens, UniProt P33261). Nature of the data set: Inhibition of human CYP activity in microsomes: (S)-mephenytoin 4′-hydroxylation. The following applies: pooled human liver microsomes, 10 to 30 min at 37° C. (Microsomes from liver hold many membrane-bound enzymes, among them those of drug oxidation.)
The next data set relates to Caco-2 cells. Nature of the data set: Caco-2 bi-directional permeability assay. The format is in vitro ADME, human. On the procedure: Caco-2 cells are obtained from American Type Culture Collection (ATCC, Manassas, Va.) and are grown to confluence for 14-21 days on 1 μm filters in 24 well plates. […] Receiver solutions consist of buffer only. Sequential samples of transported solute are taken at 20 minute intervals in duplicate over 2 hours and the concentration of the transported compound is determined by HPLC-UV/MS. Test sample concentration is determined by LC/MS. Permeability coefficients are calculated for each sampling interval, and averages from the intervals are determined. The apparent permeability coefficient Papp is calculated from the equation
[formula] where dQ/dt is the rate of permeation of drug across the cells, C0 is the original concentration in donor compartment at time zero, and A is the area of the cell monolayer. Mass balance in the system is ascertained by comparing the sum of transported solute and remaining donor solute to the starting solution concentration.
For orientation: Passage across Caco-2 layers is used to estimate intestinal permeability.

A short description of data set [3]: Flavin monooxygenase (FMO)-dependent lactam formation screening (pre-incubation temperature). The conditions noted are these: for formation: area under the curve ratio of analyte to internal standard bicifadine-d5: 1 mM NADPH, mean ± SD; for formation after 37° C. pre-incubation versus 45° C. pre-incubation: 5 minute pre-incubation. The format is in vitro ADME, human. On the procedure: FMOs, but not CYP enzymes, are sensitive to elevated incubation temperature. Thus, to determine if the formation of the lactam metabolite is mediated by FMOs and/or CYPs, the effect of pre-incubation temperature on the lactam formation is conducted by XenoBiotic Laboratories, Inc. (Plainsboro, N.J.). […] The incubation of benzydamine (positive control, 200 μM) is carried out concurrently. The samples are analyzed using LC-MS/MS (see NADPH-dependent lactam formation methodology).

Data set [4] is described as follows: Human plasma protein binding (ultrafiltration). The format is in vitro ADME. On the procedure: Samples of test drug in triplicate are mixed and incubated in Millipore Multiscreen filter plates with Ultracel-10 regenerated cellulose membranes for 60 minutes at 37° C. Following incubation, samples undergo centrifugation for 60 minutes at 2000×g and the filtrate is collected. Percent protein bound is determined from the concentration of free compound present in the filtrate following comparison to a standard curve of test drug. […] The flow rate is 1 ml/min and the column temperature is maintained at 50° C. The solvent is a gradient of solvent A composed of 0.1% formic acid in water and solvent B composed of acetonitrile with 0.07% formic acid.

A short description of data set [5]: Brain and plasma levels of amitifadine and lactam metabolite Compound 2 in rat. The conditions noted are these: for plasma level, mean±SEM: amitifadine 10 mg/kg po. The format is in vivo. Also on record: plasma level, mean±SEM: unit not given here. On the procedure:
The studies are conducted in accordance with the Institutional Animal Care and Use Committee guidelines. […] At 0.5, 1, 2, and 4 hour after dosage, animals are briefly anesthetized in a chamber containing 4% isoflurane and rapidly decapitated. Trunk blood is collected in heparinized tubes (9 units/ml whole blood), immediately chilled to 4° C., centrifuged, and the plasma is frozen at −80° C. until analyzed. Brains are quickly removed, bisected along the midline, and frozen at −80° C. until analyzed.
Plasma and brain samples are allowed to thaw on ice and are homogenized in a 20 ml glass vial in two volumes of ice cold water using a handheld homogenizer (VDI 12, VWR International). Standard curves are prepared in water, control plasma, and control brain homogenate. Equal volumes (100 μl) of plasma or brain homogenate samples, distilled water and internal standard are mixed in 1.5 ml polypropylene tubes and 300 μl of acetonitrile is added to each mixture. Samples are then mixed thoroughly by placing on a shaker at 200 RPM for 40 minutes at room temperature. The samples are then centrifuged at 10,000×g for 10 minutes at 4° C. and the supernatant (200 μl) is transferred to a tube containing 2 μl of 10% formic acid. The samples are subjected to a Zorbax SBC18 Solvent Saver Plus 3.0×150 mm 3.5-μm column on a Shimadzu Prominence LC. […] The concentration of compound in the column effluent is measured using an Applied Biosystems API-3200 triple quadrupole mass spectrometer.

Another data set deals with monoamine transporters. Nature of the data set: Affinity for monoamine transporters. The format is binding.
Data set [6] can be described thus: NADPH-dependent lactam formation in human liver microsomes. The format is in vitro ADME. The following applies: for formation: area under the curve ratio of analyte to internal standard bicifadine-d5: 10 μM parent, 30 minutes, mean ± SD. On the procedure: The effect of NADPH on lactam formation ((1S,5R)-5-(3,4-dichlorophenyl)-3-azabicyclo[3.1.0]hexan-2-one hydrochloride, Compound 2) is conducted by XenoBiotic Laboratories, Inc. (Plainsboro, N.J.). […] Bicifadine ((±)-1-(4-methylphenyl)-3-azabicyclo-[3.1.0]hexane HCl) (10 μM) is used as a positive control and the formation of the lactam metabolite of bicifadine (designated M12) is also monitored. Negative controls are determined by incubation of amitifadine and bicifadine in the absence of liver enzymes. The samples are analyzed using LC-MS/MS.
The system controller for the HPLC system is a Shimadzu SCL-10Avp, the pump model is a Shimadzu LC-10Avp, and the autosampler model is Shimadzu HTA. The analytical column is Phenomenex Luna C18 5 μm 50×2.0 mm which is set at room temperature and the autosampler is also at room temperature. The injection volume is 5 μl. Mobile phase A is 0.05% formic acid in water and mobile phase B is 0.05% formic acid in acetonitrile. The flow rate is 0.7 ml/minute and run time is 5 minutes. The mass spectrometer is an AB MDX Sciex API-4000 run in the turbo ion spray (ESI) positive ion detection mode and the scan mode is multiple reaction monitoring (MRM). The optimized mass spectrometry conditions are ion spray at 5000 V, curtain gas 10 units temperature 500° C., entrance potential 10 V, collision gas 6 units, and gas 1 and 2 each 50 units.

Data set [7] is described as follows: MAO phenotyping with MAO inhibitors in human liver mitochondria. The format is in vitro ADME. The conditions noted are these: 1 μM parent, 30 minutes at 37° C. On the procedure: A study on the role of monoamine oxidases involved in the formation of the lactam metabolite is conducted by XenoBiotic Laboratories, Inc. (Plainsboro, N.J.).
The target in another data set is T1, CYP2B6 (Homo sapiens, UniProt P20813).
T1 sequence (P20813 1-491): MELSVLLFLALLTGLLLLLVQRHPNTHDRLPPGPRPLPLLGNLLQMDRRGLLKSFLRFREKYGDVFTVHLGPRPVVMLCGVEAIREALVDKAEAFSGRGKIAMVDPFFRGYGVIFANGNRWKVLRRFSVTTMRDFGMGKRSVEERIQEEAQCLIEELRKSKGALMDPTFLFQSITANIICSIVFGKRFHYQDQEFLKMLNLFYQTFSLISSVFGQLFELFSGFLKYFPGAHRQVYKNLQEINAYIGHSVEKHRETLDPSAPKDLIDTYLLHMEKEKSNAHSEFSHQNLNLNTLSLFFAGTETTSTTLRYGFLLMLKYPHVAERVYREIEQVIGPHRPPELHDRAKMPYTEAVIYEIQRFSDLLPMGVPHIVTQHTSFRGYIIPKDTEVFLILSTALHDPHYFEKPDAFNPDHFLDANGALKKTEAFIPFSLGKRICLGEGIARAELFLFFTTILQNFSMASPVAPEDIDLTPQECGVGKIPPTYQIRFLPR
Nature of the data set: Inhibition of human CYP activity in microsomes: bupropion hydroxylation. The conditions noted are these: pooled human liver microsomes, 10 to 30 min at 37° C.

The mark [8] stands for this setting: human, Caco-2, 2 h, 10 μM, pH 7.4.
[9] abbreviates: microsomes pre-incubated at 37° C. for 5 minutes.
Where [10] appears, read: microsomes pre-incubated at 45° C. for 5 minutes.
Setting [11] is: male, Sprague-Dawley, brain/plasma, po, 10 mg/kg, read-out: brain to plasma ratio.

Chain of CYP2C19 (P33261 whole entry): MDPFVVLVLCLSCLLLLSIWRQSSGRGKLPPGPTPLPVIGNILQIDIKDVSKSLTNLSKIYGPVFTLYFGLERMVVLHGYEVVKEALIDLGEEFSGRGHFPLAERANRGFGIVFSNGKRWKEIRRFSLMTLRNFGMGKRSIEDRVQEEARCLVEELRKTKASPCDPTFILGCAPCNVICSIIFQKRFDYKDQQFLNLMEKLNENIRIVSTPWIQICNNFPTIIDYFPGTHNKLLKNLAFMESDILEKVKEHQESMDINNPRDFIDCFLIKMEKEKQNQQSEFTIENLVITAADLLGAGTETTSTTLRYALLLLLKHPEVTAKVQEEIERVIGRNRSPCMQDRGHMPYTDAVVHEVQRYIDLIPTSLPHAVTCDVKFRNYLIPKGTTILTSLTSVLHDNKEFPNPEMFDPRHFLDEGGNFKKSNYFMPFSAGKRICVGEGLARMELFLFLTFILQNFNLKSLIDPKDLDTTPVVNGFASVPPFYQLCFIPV

In the data set on human hepatocytes [1] (100 μM), `CCOc1ccc2ccc(=O)oc2c1` [7-ethoxycoumarin, reference compound] yielded a metabolized after incubation of 68.9%.
Consider `O=c1ccc2ccc(O)cc2o1` [7-hydroxycoumarin], for which the metabolized after incubation with human hepatocytes [2] amounted to 99.1%.
As to `CC[C@@]1(c2ccccc2)C(=O)NC(=O)N(Cc2ccccc2)C1=O` [(R)-N-3-benzyl-Phenobarb-ital, (R)—N-3-benzylphenobarbital], on CYP2C19, the IC50 is 0.3 µM.
Turning to `Clc1ccc([C@]23CNC[C@H]2C3)cc1Cl` [Amitifadine, (1R,5S)-(+)-1-(3,4-dichlorophenyl)-3-azabicyclo[3.1.0]hexane hydrochloride], in the data set with Caco-2 cells (setting [8]), the “Mass balance % AP→BL” value came out at 62% and the “Mass balance % BL→AP” value is recorded as 88%. Also, in the data set with human hepatocytes [1] (87 μM), the “parent remaining unchanged after incubation” value was determined as 82.4%.
As for `C[N+](C)([O-])CCCOc1nn(Cc2ccccc2)c2ccccc12` [Benzydamine N-oxide, reference compound], the “formation: area under the curve ratio of analyte to internal standard bicifadine-d5” value in data set [3] (setting [9]) turned out to be 35.70 ± 0.86; in data set [3] (setting [10]), 7.68 ± 1.51. The “formation after 37° C. pre-incubation versus 45° C. pre-incubation” value in data set [3] is listed as 4.6 fold.
As for `Cn1c(=O)c2c(ncn2C)n(C)c1=O` [Caffeine], in data set [4] (1 μM, mean and SEM of triplicate, read-out: % Bound (converted)), the fraction unbound at 60 min, 1 μM was 0.73. Further, in [4] (10 μM, mean and SEM of triplicate, read-out: % Bound (converted)), the fraction unbound at 60 min, 10 μM was 0.641. Also, the fraction unbound at 60 min in [4] (average of 1 and 10 μM) was 0.685.
Consider `O=C1NC[C@]2(c3ccc(Cl)c(Cl)c3)C[C@H]12` [Compound 2, (1S,5R)-5-(3,4-dichlorophenyl)-3-azabicyclo[3.1.0]hexan-2-one hydrochloride], for which the “formation: area under the curve ratio of analyte to internal standard bicifadine-d5” value in data set [3] (setting [9]) came to 0.05 ± 0.01; in data set [3] (setting [10]) it was 0.06 ± 0.01; in data set [6] (0 mM NADPH at 37° C) it was 0.04 ± 0.00; in data set [6] (1 mM NADPH at 37° C.) it was 0.08 ± 0.01. The “formation after 37° C. pre-incubation versus 45° C. pre-incubation” value in data set [3] was “did not alter”. The “plasma level, mean±SEM” value in [5] (0.5 hours) is 1153±610; in [5] (1 hour), 1620±303; in [5] (2 hours), 3831±1127; in data set [5] (4 hours), 8896±794. For the same compound, the Kp at 0.5 h in [5] (setting [11]) is 1.1. Moreover, the Kp at 1 h in [5] (setting [11]) stood at 1.3. In addition, the Kp at 2 h in data set [5] (setting [11]) was 1.4. The Kp at 4 h in data set [5] (setting [11]) was determined as 1.7. Also, in the data set on monoamine transporters, the “affinity for monoamine transporters” value is recorded as “low affinity”. Also, the “quantity formed in presence of NADPH versus absence of NADPH” value in [6] (1 mM vs 0 mM NADPH) was 2 fold. In addition, in data set [7], the “effect of MAO-A inhibitor clorgyline on lactam formation” value is “concentration-dependently decreased”. Besides, the “effect of MAO-B inhibitor selegiline on lactam formation” value in data set [7] was “did not have an effect”.
On to `CC(Nn1nnc2ccccc21)c1ccccc1` (stereo not drawn) [N-(α-methylbenzyl)-1-AB, N-(α-methylbenzyl)-1-aminobenzotriazole], for which the IC50 against CYP2B6 was found to be 0.06 µM.
Turning to Lucifer yellow [reference compound], the “transfer across Caco-2 monolayer (integrity)” value with Caco-2 cells (Caco-2) is on record as ≤ 0.05%.

The values above are taken from US9566264B2, “Combinations and methods” (Euthymics Bioscience, Inc., priority 2013, dated 2017).
